One series addresses T1, Wee-1 kinase (Homo sapiens, UniProt P30291).
T1 construct: purchased Invitrogen PV3817
The series is described as follows: Measurement of Wee-1 kinase activity (ADP-Glo luminescent kit). The series is classed as biochemical. On the procedure:
Method 1: Measurement of Wee-1 Kinase Activity
In the measurement of Wee-1 activity, a commercial peptide Poly(Lys Tyr (4:1)) hydrobromide was purchased from Sigma Aldrich and used as the substrate. Activated Wee-1 kinase was purchased from Invitrogen (PV3817) and an ADP-Glo luminescent kit was purchased from Promega.
All reactions took place in […] volumes in reaction buffer containing 40 mM Tris-HCl and 20 mM magnesium chloride, supplemented with 0.1 mg/mL bovine serum albumin and 2 mM DTT. Compounds were serially diluted in buffer and 5 μL of each concentration pipetted into a white 384 well plate (Sigma Aldrich M6186). A 5 μL aliquot of the Wee-1 enzyme was added to each well and the plate centrifuged for 1 min to ensure mixing of the enzyme and inhibitor.
The plate was incubated at room temperature for 30 minutes before the addition of 2.0 μg/mL of substrate and 30 μM ATP in a 5 μL aliquot. The plate was centrifuged for one minute and incubated for 1 h at RT.
15 µL of ADP-Glo stop reagent was added to each well to quench the reaction and deplete unconverted ATP. The plate was incubated for a further 40 min in the dark at RT.
30 μL of ADP-Glo kinase detection reagent was added to each well, converting ADP to ATP, catalysing the generation of luciferin by luciferase. The plate was shaken for 1 min, and incubated in the dark for an additional hour.
Luminescence from each well was detected using the Biotek Synergy4 HD plate reader and the percentage inhibition of kinase activity calculated for each inhibitor tested. Positive (kinase only) and negative (no kinase) controls were added to each plate to ensure specific interaction of kinase and inhibitor. The IC50 concentration for each inhibitor was calculated by plotting the percentage kinase inhibition against concentration of inhibitor and the curve generated by non-linear regression fitting.

Series [1] in a line: CLint estimates using human liver microsomes (Method 4). The class given is in vitro ADME. To be noted: pH 7.4, 1 μM compound, read-out: Mics - CLint (HLM CLint). On the procedure:
Method 4: Determination of CLint Estimates Using Human liver microsomes Test compounds (final concentration=1 μM; final DMSO concentration=0.1%) were incubated in 0.1 M phosphate buffer pH 7.4 with human liver microsomes (0.5 mg of protein/mL) at 37° C. Reactions were started by addition of NADPH in 0.1 M phosphate buffer pH 7.4 (final concentration 1 mM). 40 μL aliquots were removed at 2, 5, 10, 15, 20, 30, 40 and 50 min. Reactions were quenched in 80 μL of ice-cold methanol. Samples were subsequently frozen overnight then centrifuged at 3500 rpm for 20 min at 4° C. The supernatants were removed and transferred into analytical plates and analysed by LC/MS/MS. LC/MS/MS Method: All samples were analysed on a Waters Acquity I-Class coupled to a Waters Xevo TQD mass spectrometer. A Waters BEH C18 2.1×50 mm 1.7 μm column was used and mobile phases were water and methanol containing 0.1% formic acid as modifier. Analysis was by multiple reaction monitoring and conditions were optimised for each test compound. Data Analyses: From a plot of 1n peak area against time, the gradient of the line is determined. Subsequently, half-life and intrinsic clearance are calculated using the following equations. [formula] [formula] [formula] where V=Incubation volume (μL)/number of cells Method 5: Determination of Kinetic Solubility (in PBS Buffer)

T1 sequence (P30291 whole entry): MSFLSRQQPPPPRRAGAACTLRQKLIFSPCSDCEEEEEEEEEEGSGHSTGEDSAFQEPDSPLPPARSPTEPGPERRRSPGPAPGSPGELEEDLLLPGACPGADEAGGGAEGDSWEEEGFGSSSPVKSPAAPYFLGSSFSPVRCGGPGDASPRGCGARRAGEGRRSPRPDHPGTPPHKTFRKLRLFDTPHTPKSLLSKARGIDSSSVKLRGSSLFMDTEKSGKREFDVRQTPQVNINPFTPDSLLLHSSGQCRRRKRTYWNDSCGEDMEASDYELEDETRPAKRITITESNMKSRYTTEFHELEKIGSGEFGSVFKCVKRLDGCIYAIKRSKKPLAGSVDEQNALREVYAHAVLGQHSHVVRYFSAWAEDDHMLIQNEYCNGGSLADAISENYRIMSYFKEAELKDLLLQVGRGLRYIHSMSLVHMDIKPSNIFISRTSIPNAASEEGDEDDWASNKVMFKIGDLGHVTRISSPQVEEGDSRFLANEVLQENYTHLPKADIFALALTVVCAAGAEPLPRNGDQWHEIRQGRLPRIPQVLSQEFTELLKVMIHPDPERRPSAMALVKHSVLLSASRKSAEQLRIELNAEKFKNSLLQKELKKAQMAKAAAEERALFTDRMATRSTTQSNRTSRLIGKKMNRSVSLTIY

For `Cc1cc(Nc2ncc3c(n2)N(C)CN(c2c(Cl)cccc2Cl)C3=O)ccc1N1C[C@@H]2C[C@H]1CN2` [Example 75, 7-((4-((1S,4S)-2,5-diazabicyclo[2.2.1]heptan-2-yl)-3-methylphenyl)amino)-3-(2,6-dichlorophenyl)-1-methyl-2,3-dihydropyrimido[4,5-d]pyrimidin-4(1H)-one], the IC50 on Wee-1 kinase was not above 10 nM. Also, in series [1], the microsomal CLint at 1 μM is not above 15 µL/min/mg.
Taken in the same sequence, the figures for `CN1CN(c2c(Cl)cccc2Cl)C(=O)c2cnc(Nc3ccc(N4CCS(=O)(=O)CC4)cc3)nc21` [Example 42, 3-(2,6-dichlorophenyl)-7-((4-(1,1-dioxidothiomorpholino)phenyl)amino)-1-methyl-2,3-dihydropyrimido[4,5-d]pyrimidin-4(1H)-one] were 10 to 100 nM and 15 to 50 µL/min/mg.
Take `CNCc1cc(Nc2ncc3c(n2)N(C)CN(c2c(Cl)cccc2Cl)C3=O)ccc1-c1ccncc1` [Example 155, 3-(2,6-dichlorophenyl)-1-methyl-7-((3-((methylamino)methyl)-4-(pyridin-4-yl)phenyl)amino)-2,3-dihydropyrimido[4,5-d]pyrimidin-4(1H)-one]: on Wee-1 kinase, the IC50 lay in the range of 10 to 100 nM. Besides, the microsomal CLint at 1 μM in series [1] is not above 15 µL/min/mg.
Taken in the same sequence, the figures for `CN1CN(c2c(Cl)cccc2Cl)C(=O)c2cnc(Nc3ccc(N4CCN5CCOC[C@@H]5C4)c(CO)c3)nc21` [Example 133, (S)-3-(2,6-dichlorophenyl)-7-((4-(hexahydropyrazino[2,1-c][1,4]oxazin-8(1H)-yl)-3-(hydroxymethyl)phenyl)amino)-1-methyl-2,3-dihydropyrimido[4,5-d]pyrimidin-4(1H)-one] were 10 to 100 nM and 15 to 50 µL/min/mg.
As to `C[C@@H]1CN(c2ccc(Nc3ncc4c(n3)N(C)CN(c3c(Cl)cccc3Cl)C4=O)c(F)c2)CCN1` [Example 142, (R)-3-(2,6-dichlorophenyl)-7-((2-fluoro-4-(3-methylpiperazin-1-yl)phenyl)amino)-1-methyl-2,3-dihydropyrimido[4,5-d]pyrimidin-4(1H)-one], the IC50 at Wee-1 kinase is not below 100 nM. In series [1], the microsomal CLint at 1 μM is 15 to 50 µL/min/mg.
The like results for `CN1CN(c2c(Cl)cccc2Cl)C(=O)c2cnc(Nc3ccc(N4CCN[C@H](CO)C4)c(F)c3)nc21` [Example 48, (S)-3-(2,6-dichlorophenyl)-7-((3-fluoro-4-(3-(hydroxymethyl)piperazin-1-yl)phenyl)amino)-1-methyl-2,3-dihydropyrimido[4,5-d]pyrimidin-4(1H)-one] were, in that order, 10 to 100 nM and not above 15 µL/min/mg.
The like results for `COCCN1CCN(c2ccc(Nc3ncc4c(n3)N(C)CN(c3c(Cl)cccc3Cl)C4=O)cc2)CC1` [Example 120, 3-(2,6-dichlorophenyl)-7-((4-(4-(2-methoxyethyl)piperazin-1-yl)phenyl)amino)-1-methyl-2,3-dihydropyrimido[4,5-d]pyrimidin-4(1H)-one] were, in that order, not below 100 nM and 15 to 50 µL/min/mg.
Taken in the same sequence, the figures for `C[C@@H]1CN(c2ccc(Nc3ncc4c(n3)N(C)CN(c3ccccc3Cl)C4=O)cc2)[C@@H](C)CN1` [Example 111, 3-(2-chlorophenyl)-7-((4-((2S,5R)-2,5-dimethylpiperazin-1-yl)phenyl)amino)-1-methyl-2,3-dihydropyrimido[4,5-d]pyrimidin-4(1H)-one] were 10 to 100 nM and not above 15 µL/min/mg.
Take `CC(=O)NCc1cc(Nc2ncc3c(n2)N(C)CN(c2c(Cl)cccc2Cl)C3=O)ccc1N1CCNCC1` [Example 145, N-(5-((6-(2,6-dichlorophenyl)-8-methyl-5-oxo-5,6,7,8-tetrahydropyrimido[4,5-d]pyrimidin-2-yl)amino)-2-(piperazin-1-yl)benzyl)acetamide]: the IC50 on Wee-1 kinase lay within 10 to 100 nM. Besides, the microsomal CLint at 1 μM in series [1] was not above 15 µL/min/mg.
The like results for `CNCc1cc(Nc2ncc3c(n2)N(C)CN(c2c(Cl)cccc2Cl)C3=O)ccc1Br` [Example 157, 7-((4-bromo-3-((methylamino)methyl)phenyl)amino)-3-(2,6-dichlorophenyl)-1-methyl-2,3-dihydropyrimido[4,5-d]pyrimidin-4(1H)-one] were, in that order, 10 to 100 nM and not above 15 µL/min/mg.
The like results for `CN1CCC(Oc2ccc(Nc3ncc4c(n3)N(C)CN(c3c(Cl)cccc3Cl)C4=O)cc2)CC1` [Example 90, 3-(2,6-dichlorophenyl)-1-methyl-7-((4-((1-methylpiperidin-4-yl)oxy)phenyl)amino)-2,3-dihydropyrimido[4,5-d]pyrimidin-4(1H)-one] were, in that order, 10 to 100 nM and 15 to 50 µL/min/mg.
Taken in the same sequence, the figures for `CN1CN(c2c(Cl)cccc2Cl)C(=O)c2cnc(Nc3ccc(N4CC5CNCC5C4)cc3)nc21` (stereo not shown) [Example 36, 3-(2,6-dichlorophenyl)-7-((4-(hexahydropyrrolo [3,4-c]pyrrol-2(1H)-yl)phenyl)amino)-1-methyl-2,3-dihydropyrimido[4,5-d]pyrimidin-4(1H)-one] were 10 to 100 nM and 15 to 50 µL/min/mg.
For the molecule `CCN1CCN(c2ccc(Nc3ncc4c(n3)N(C)CN(c3ccccc3Cl)C4=O)cc2CO)CC1` [Example 113, 3-(2-chlorophenyl)-7-((4-(4-ethylpiperazin-1-yl)-3-(hydroxymethyl)phenyl)amino)-1-methyl-2,3-dihydropyrimido[4,5-d]pyrimidin-4(1H)-one], the 50% inhibitory concentration (IC50) at Wee-1 kinase was in the range of 10 to 100 nM. Besides, the microsomal CLint at 1 μM in series [1] was 15 to 50 µL/min/mg.
For the molecule `CN1CN(c2c(Cl)cccc2Cl)C(=O)c2cnc(Nc3ccc(N4CCOCC4)c(CO)c3)nc21` [Example 73, 3-(2,6-dichlorophenyl)-7-((3-(hydroxymethyl)-4-morpholinophenyl)amino)-1-methyl-2,3-dihydropyrimido[4,5-d]pyrimidin-4(1H)-one], the IC50 on Wee-1 kinase lay within 10 to 100 nM.
Same read-out and setting: to `C[C@@H]1CN(c2ccc(Nc3ncc4c(n3)N(C)CN(c3ccccc3Cl)C4=O)cc2)CCN1` [Example 94, (R)-3-(2-chlorophenyl)-1-methyl-7-((4-(3-methylpiperazin-1-yl)phenyl)amino)-2,3-dihydropyrimido[4,5-d]pyrimidin-4(1H)-one] belongs 10 to 100 nM; to `Cc1cccc(Cl)c1N1CN(C)c2nc(Nc3ccc(N4CCN[C@H](C)C4)cc3)ncc2C1=O` [Example 100, (R)-3-(2-chloro-6-methylphenyl)-1-methyl-7-((4-(3-methylpiperazin-1-yl)phenyl)amino)-2,3-dihydropyrimido[4,5-d]pyrimidin-4(1H)-one], 10 to 100 nM.
Same read-out and setting: the result for `CN1CN(c2ccccc2Cl)C(=O)c2cnc(Nc3ccc(N4CC5C[C@H]4CN5)cc3)nc21` (stereo in doubt) [Example 104, 7-((4-((1S,4R)-2,5-diazabicyclo[2.2.1]heptan-2-yl)phenyl)amino)-3-(2-chlorophenyl)-1-methyl-2,3-dihydropyrimido[4,5-d]pyrimidin-4(1H)-one] reads not below 100 nM; that for `C[C@@H]1CN(c2ccc(Nc3ncc4c(n3)N(C3CC3)CN(c3c(Cl)cccc3Cl)C4=O)cc2)CCN1` [Example 85, (R)-1-cyclopropyl-3-(2,6-dichlorophenyl)-7-((4-(3-methylpiperazin-1-yl)phenyl)amino)-2,3-dihydropyrimido[4,5-d]pyrimidin-4(1H)-one], 10 to 100 nM.
As for `COc1cc(Nc2ncc3c(n2)N(C)CN(c2c(Cl)cccc2Cl)C3=O)ccc1N1C[C@@H]2C[C@H]1CN2` [Example 82, 7-((4-((1S,4S)-2,5-diazabicyclo[2.2.1]heptan-2-yl)-3-methoxyphenyl)amino)-3-(2,6-dichlorophenyl)-1-methyl-2,3-dihydropyrimido[4,5-d]pyrimidin-4(1H)-one], the half-inhibitory concentration (IC50) on Wee-1 kinase was in the range of 10 to 100 nM.
Still for that read-out and setting: the result for `COCc1cc(Nc2ncc3c(n2)N(C)CN(c2c(Cl)cccc2Cl)C3=O)ccc1N1CCN(C)CC1` [Example 69] reads 10 to 100 nM.
On the same count and under the same terms, the result for `CN1CN(c2ccccc2Cl)C(=O)c2cnc(Nc3ccc(N4CCNC5(CC5)C4)cc3)nc21` [Example 105, 7-((4-(4,7-diazaspiro[2.5]octan-7-yl)phenyl)amino)-3-(2-chlorophenyl)-1-methyl-2,3-dihydropyrimido[4,5-d]pyrimidin-4(1H)-one] reads 10 to 100 nM.

These data come from patent US9850247B2 (Almac Discovery Limited, priority 2013, dated 2017).
